Laboratory results: patent US6440440B1, “Biocidal benzylbiphenyl derivatives” (priority 1998, dated 2002)

Assays:
Format in all cases: cell-based
[1] = test system: Sporobolomyces roseus; assay: Screening against yeasts; parameters: key: 3 = complete inhibition of growth, 2 = growth partially controlled; conditions: test compound concentration 500 μmol
Procedure: (§1) The stock solutions with the test compounds were pipetted into multiwell plates and mixed with warm tryptose broth agar (2.6%) in order to reach a test compound concentration of 500 μMol. The medium was allowed to cool and subsequently inoculated with the bacteria. Wells were placed in an incubator at 27° C. and a relative humidity of 70%. After sufficient growth of the untreated cultures, the test was evaluated.
(§2) 3: complete inhibition of bacterial growth
(§3) 2: bacterial growth partially controlled
(§4) A number of compounds of formula (I) were also tested in a screening against certain The test conditions are the same as described in biological example C.1. The concentration of the test compound was also 500 μmol, and the scoring system used was also the same.
Sporobolomyces roseus (21)

[2] = test system: Debaryomyces hansenii; assay: Screening against yeasts; parameters: key: 3 = complete inhibition of growth, 2 = growth partially controlled; conditions: test compound concentration 500 μM
Procedure: as §1, §2, §3, §4
Debaryomyces hansenii (19)

[3] = test system: Rhodotorula rubra; assay: Screening against yeasts; parameters: key: 3 = complete inhibition of growth, 2 = growth partially controlled; conditions: test compound concentration 500 μmol
Procedure: as §1, §2, §3, §4

[4] = test system: Escherichia coli; assay: Primary bacteria screening; parameters: key: score: 3 = complete inhibition of growth, 2 = growth partially controlled; conditions: test compound concentration 500 μMol in tryptose broth agar, 27° C.
Procedure: as §1, §2, §3

[5] = test system: Pseudomonas aeruginosa; assay: Primary bacteria screening; parameters: key: score: 3 = complete inhibition of growth, 2 = growth partially controlled; conditions: test compound concentration 500 μMol in tryptose broth agar, 27° C.
Procedure: as §1, §2, §3

SMILES	Test yeast (21) Sporobolomyces roseus (score) [1]	Test yeast (19) Debaryomyces hansenii (score) [2]	Test yeast (20) Rhodotorula rubra (score) [3]	E. coli (growth inhibition score) [4]	P. aeruginosa (growth inhibition score) [5]
Cl.Cl.c1ccc(-c2ccc(C(c3ccccc3)C3CCN(C4CCNCC4)CC3)cc2)cc1 (single isomer, unassigned) [compound 22]	3	3	1	3	1
c1ccc(-c2ccc(C(c3ccccc3)C3CCN(C4CCNCC4)CC3)cc2)cc1 (single isomer, unassigned) [compound 23]	3	3	3	1	3
Cl.Cl.Fc1ccc(-c2ccc(C(c3ccc(F)cc3)C3CCN(C4CCNCC4)CC3)cc2)cc1 (stereo not shown) [compound 6]	3	3	3	3	3
Cc1ccc(C(c2ccc(-c3ccc(F)cc3)cc2)C2CCN(C3CCNCC3)CC2)cc1.Cl.Cl (stereo not shown) [compound 9]	3	3	3	3	2
Cl.Fc1ccc(C(c2ccc(-c3ccccc3)cc2)C2CCN(C3CCNCC3)CC2)cc1 (stereo not shown) [compound 11]	3	3	1	3	3
Br.Br.COc1ccc(C(c2ccc(-c3ccccc3)cc2)C2CCN(C3CCNCC3)CC2)cc1 (stereo not shown) [compound 12]	3	3	2	3	2
Cl.Cl.Oc1ccc(C(c2ccc(-c3ccccc3)cc2)C2CCN(C3CCNCC3)CC2)cc1 (stereo not shown) [compound 13]	3	3	1	3	3
NCCCN1CCC(N2CCC(C(c3ccccc3)c3ccc(-c4ccccc4)cc3)CC2)CC1 (stereo not shown) [compound 16]	3	3	3	3	3
CCN1CCC(N2CCC(C(c3ccccc3)c3ccc(-c4ccccc4)cc3)CC2)CC1.Cl.Cl (stereo not shown) [compound 18]	3	3	1	1	2
NCCC1CCN(CC=C(c2ccccc2)c2ccc(-c3ccccc3)cc2)CC1.O=C(O)C(=O)O.O=C(O)C(=O)O [compound 25]	3	3	1	3	1
NCC1CCN(CC=C(c2ccccc2)c2ccc(-c3ccccc3)cc2)CC1.O=C(O)C(=O)O.O=C(O)C(=O)O [compound 26]	3	3	2	3	1
NC1CCN(CC=C(c2ccccc2)c2ccc(-c3ccccc3)cc2)CC1.O=C(O)C(=O)O.O=C(O)C(=O)O [compound 27]	3	3	1	3	1
Cl.Cl.NCCC1CCN(CCC(c2ccccc2)c2ccc(-c3ccccc3)cc2)CC1 (stereo not shown) [compound 29]	3	3	3	3	1
Cl.Cl.NCC1CCN(CCC(c2ccccc2)c2ccc(-c3ccccc3)cc2)CC1 (stereo not shown) [compound 30]	3	3	1	3	1
Cl.Cl.NC1CCN(CCC(c2ccccc2)c2ccc(-c3ccccc3)cc2)CC1 (stereo not shown) [compound 31]	3	3	1	3	1
CN(C)CC1CCN(CCC(c2ccccc2)c2ccc(-c3ccccc3)cc2)CC1 (stereo not shown) [compound 33]	3	3	3	1	1
CN(C)CCNCCC(c1ccccc1)c1ccc(-c2ccccc2)cc1 (stereo not shown) [compound 39]	3	3	1	3	1
CN(C)CCCN1CCC(C(c2ccccc2)c2ccc(-c3ccccc3)cc2)CC1.Cl.Cl (stereo not shown) [compound 43]	3	3	2	1	2
Cl.Cl.Cl.c1ccc(-c2ccc(C(c3ccccc3)N3CCN(C4CCNCC4)CC3)cc2)cc1 (stereo not shown) [compound 46]	3	3	1	1	3
c1ccc(-c2ccc(C(NC3CCN(C4CCNCC4)CC3)c3ccccc3)cc2)cc1 (stereo not shown) [compound 47]	3	3	3	3	1
Cl.Cl.Cl.NC1CCN(C2CCN(C(c3ccccc3)c3ccc(-c4ccccc4)cc3)CC2)CC1 (stereo not shown) [compound 49]	3	3	2	3	1
Br.Br.c1ccc(-c2ccc(C(CCNC3CCNCC3)c3ccccc3)cc2)cc1 (stereo not shown) [compound 50]	3	3	3	3	1
Br.Br.CN(CCC(c1ccccc1)c1ccc(-c2ccccc2)cc1)C1CCNCC1 (stereo not shown) [compound 51]	3	3	3	3	1
